Tests used:
[1] = tested on: phosphorylation of the ribosomal protein S6 in MEF cells; assay: rpS6 phosphorylation in MEF cells (ELISA and Western blotting), read-out for mTOR pathway activity; format: cell-based, mouse; conditions: 60 minutes incubation
Text: These assays are used to test the effect of a compound on the activity of the mTOR pathway. Phosphorylation of ribosomal protein rp60 is used as read-out for mTOR pathway activity. […] Thus, these assays mimic a disease causative mechanism.
MEFs are mouse embryo fibroblasts derived from TSC2 knockout (MEF110) and TSC2+ (MEF157) mice. Tsc2 mutations are known to cause tuberous sclerosis and lymphangioleiomyomatosis in humans.
All cells were maintained in DMEM tissue culture medium, with the addition of fetal calf serum to 10% to support cell proliferation, at 37° C. and 5% CO2.
In MEFs, ribosomal protein S6, which is a component of the 40S ribosome, and phosphorylated at Ser236 by p70 S6 kinase can be assayed by ELISA and Western blotting, using phospho-specific antibodies which detect both the human and the mouse forms of rpS6. This assay is predicitve of compounds with protective or therapetic activities for respiratory and vascular diseases, fibrotic diseases, or neurodegenerative diseases.
Cells were grown to 60-80% confluence in DMEM+10% serum. Medium was replaced with fresh serum free medium two hours before addition of test compound of the invention.
Compound was added as a 1:1000 dilution of the stock solution in DMSO. DMSO was added as a vehicle control, and samples were incubated for a further 60 minutes. […]

[2] = tested on: phosphorylation of the ribosomal protein S6 in 621-101 cells; assay: rpS6 phosphorylation in 621-101 cells (ELISA and Western blotting), read-out for mTOR pathway activity; format: cell-based, human; conditions: 60 minutes incubation
Experimental: These assays are used to test the effect of a compound on the activity of the mTOR pathway. Phosphorylation of ribosomal protein rp60 is used as read-out for mTOR pathway activity. […] Thus, these assays mimic a disease causative mechanism. 621-101 cells are human cells derived from an angiomyolipoma. They have verified TSC2 mutations and are the only disease-derived mutation-bearing cells used that are mimicking the disease Lymphangioleiomyomitosis. Cells were grown to 60-80% confluence in DMEM+10% serum. Medium was replaced with fresh serum free medium two hours before addition of test compound of the invention. Compound was added as a 1:1000 dilution of the stock solution in DMSO. DMSO was added as a vehicle control, and samples were incubated for a further 60 minutes. For ELISA, cells were harvested into 200 ul cell lysis buffer containing both protease and phosphatase inhibitors, to protect the phosphorylation status of rpS6. Lysates were stored at −80° C. prior to use. 50 ul of lysate per sample was used for the ELISA, which was carried out according to manufacturers' instructions. For Western blotting, cells were harvested into 200 ul cell lysis buffer containing both protease and phosphatase inhibitors and resolved by SDS-PAGE before transfer to PVDF membrane and incubation with anti-phospho-rpS6 and anti-total-rpS6 antibodies.

CC(=O)Oc1ccccc1C(=O)Nc1ncc([N+](=O)[O-])s1 [the compound of the invention, [2-[(5-nitro-1,3-thiazol-2-yl)carbamoyl]phenyl]ethanoate]
tolerability by the cells [1]: well tolerated | tolerability by the cells [2]: well tolerated

Reference: patent US11547699B2, “[2-[(5-nitro-1,3-thiazol-2-yl)carbamoyl]phenyl]ethanoate for use in lymphangioleiomyomatosis and other diseases” (priority 2017, dated 2023)
